US9790218B2, “Small molecule activators of calcium-activated chloride channels and methods of use” (The Regents of the University of California, priority 2011, dated 2017)

Legend:
[1] = tested on: CF human bronchial epithelial (CF HBE) cells; test: Short-circuit current in CF HBE cells; type: cell-based; conditions: no IL-4; UTP 100 μM
Experimental: FIG. 5A-B. Airway epithelial chloride secretion. FIG. 5A. Short-circuit current in CF HBE cells. Eact and UTP (100 μM) were added in control (left) and IL-4 (10 ng/ml, 24 h, middle) treated CF HBE cells. (right) Summary of Eact-induced, T16Ainh-A01-sensitive peak current (mean±S.E., n=6-8, * P<0.05). ENaC was inhibited by 10 μM amiloride. FIG. 5B. Eact (10 μM) and UTP (100 μM) induced CaCC Cl^− current measured in primary cultures of non-CF human tracheal gland (HTG) serous cells. (left and gmiddle) TMEM16A, CFTR and ENaC were inhibited by pretreatment with T16Ainh-A01, CFTRinh-172 and amiloride, respectively. Inset: TMEM16A immunoblot in whole cell homogenates of CF HBE and HTG cells. (right) Summary of UTP and Eact-induced peak current in the presence and absence of T16Ainh-A01 (mean±S.E., n=3, * P<0.05).
Tracheal and bronchial tissues were obtained from non-CF and CF patients following lung transplantation or from postmortem examinations performed within 24 h after death. […]
(§1) Snapwell inserts containing TMEM16A-expressing FRT, HBE, CF HBE or HTG cells were mounted in Ussing chambers (Physiologic Instruments, San Diego, Calif.). […] Apical membrane current (for FRT cells) and short-circuit current were measured using an EVC4000 Multi-Channel V/I Clamp (World Precision Instruments, Sarasota, Fla.) and recorded using PowerLab/8sp (AD Instruments, Castle Hill, Australia).

[2] = tested on: non-CF human tracheal gland (HTG) serous cells; test: Short-circuit current in human tracheal gland (HTG) serous cells; type: cell-based; conditions: Eact 10 μM, UTP 100 μM
Experimental: FIG. 5A-B. Airway epithelial chloride secretion. FIG. 5A. Short-circuit current in CF HBE cells. Eact and UTP (100 μM) were added in control (left) and IL-4 (10 ng/ml, 24 h, middle) treated CF HBE cells. (right) Summary of Eact-induced, T16Ainh-A01-sensitive peak current (mean±S.E., n=6-8, * P<0.05). ENaC was inhibited by 10 μM amiloride. FIG. 5B. Eact (10 μM) and UTP (100 μM) induced CaCC Cl^− current measured in primary cultures of non-CF human tracheal gland (HTG) serous cells. (left and gmiddle) TMEM16A, CFTR and ENaC were inhibited by pretreatment with T16Ainh-A01, CFTRinh-172 and amiloride, respectively. Inset: TMEM16A immunoblot in whole cell homogenates of CF HBE and HTG cells. (right) Summary of UTP and Eact-induced peak current in the presence and absence of T16Ainh-A01 (mean±S.E., n=3, * P<0.05). […]
as §1, with “Australia). […]” for “Australia).”

[3] = tested on: mouse ileal smooth muscle; test: Intestinal smooth muscle contraction, ex vivo mouse ileal segments; conditions: carbachol 1 μM
Experimental: FIG. 8A-C. Intestinal smooth muscle contraction. FIG. 8A. Representative traces from mouse ileal segments showing effects of T16Ainh-A01 (10 μM), carbachol (CCh, 1 μM) and Eact (10 μM). FIG. 8B. Effect of CCh (1 μM) and Eact (10 μM) following atropine (1 μM). FIG. 8C. Summary of contraction frequency (left), and resting and maximum tone (right) (mean±S.E., n=4-7, * P<0.05).
Wild type CD1 mice (age 8-10 weeks) were killed by avertin overdose (200 mg/kg). The ileum removed and washed with ice-cold HCO3^−-buffered solution. The ends of the ileal segments were tied with silk thread and connected to a force transducer. Beal segments were equilibrated for 60 min with a resting force of ˜1 mN, with changes of the bathing solution every 15 min. Tension was monitored continuously with a fixed-range precision force transducer (TSD, 125 C; Biopac, Goleta, Calif.) connected to a differential amplifier (DA 100B; Biopac). Data were recorded using MP100, Biopac digital acquisition system and analyzed using Acknowledge 3.5.7 software.
TMEM16A in expressed in the interstitial cells of Cajal, the pacemaker cells that control smooth muscle contraction dynamics in stomach and intestine (Huang et al., supra; Gomez-Pinilla et al. (2009) Am. J. Physiol. Gastrointest. Liver Physiol. 296, G1370-1381). The effect of Eact on mouse ileal smooth muscle contraction was investigated using an ex vivo intestinal preparation. […] Without wishing to be bound by theory, the constitutive TMEM16A activity in this ex vivo preparation could obscure Eact activity. To reveal Eact effects, atropine was first added to inhibit basal contractions. […] FIG. 8C summarizes data on contraction frequency, resting tone and maximal tone.

[4] = tested on: human bronchi submucosal glands; test: Airway submucosal gland fluid secretion in human bronchi; conditions: serosal application; 300 nM carbachol, 20 μM Eact
Experimental: FIG. 6A-C. Airway submucosal gland fluid secretion in human bronchi. FIG. 6A. TMEM16A immunohistochemistry in CF (left) and non-CF (right) human bronchi showing apical membrane expression in serous gland epithelial cells (arrows). Scale bar: 20 μm. FIG. 6B. Mucous (fluid) secretion in human bronchi. (top) Images of mucus bubbles formed under oil in response to basolateral application of 300 nM carbachol (CCh) and 20 μM Eact. TMEM16A was inhibited by 30 μM T16Ainh-A01. Individual fluid bubbles marked with arrowheads. Scale bar: 0.5 mm. (bottom) CCh and Eact-induced secretion rates. Where indicated, tissues were pre-treated with T16Ainh-A01 (30 μM). Each point is the average of measurements made from 20 glands (mean±S.E. * P<0.05). FIG. 6C. Summary of human gland fluid secretion rates measured at 20 min after addition of 20 μM Eact, and 30 min after application of 300 nM carbachol (CCh) and 10 μM forskolin (20-66 glands from 3 tracheas and 4 bronchus). In CF-bronchi, 6 glands from one donor were stimulated by Eact. […]
Similar staining was found in non-CF and CF human bronchi. Fluid secretion was measured in individual submucosal glands from the increasing size of mucus (fluid) bubbles in which airway fragments were mounted in a 37° C. perfusion chamber and the mucosal solution was covered with oil.

Row | Compound | Cl^− current in untreated CF bronchial epithelial cells [1] | Cl^− current in HTG serous cells [2] | contraction frequency [3] | resting and maximum tone ([3]; Eact 10 μM, no atropine) | gland fluid secretion rate [4]
1 | O=c1ccn([C@@H]2O[C@H](COP(=O)(O)OP(=O)(O)OP(=O)(O)O)[C@@H](O)[C@H]2O)c(=O)[nH]1 [UTP, reference compound] | produced a large Cl^− current | increased Cl^− current |  |  | 
2 | C[N+](C)(C)CCOC(N)=O [carbachol] |  |  | without change in contraction frequency | increased | significantly increased secretion
